Assay results as given in patent US11827639B2, “TDO2 and IDO1 inhibitors” (Genentech, Inc., priority 2017, dated 2023).

Legend:
TDO2 = TDO2 (Homo sapiens, UniProt P48775); assay: cell-based
IDO1 = IDO1 (Homo sapiens, UniProt P14902); assay: cell-based
Sequence of IDO1 (P14902 whole entry): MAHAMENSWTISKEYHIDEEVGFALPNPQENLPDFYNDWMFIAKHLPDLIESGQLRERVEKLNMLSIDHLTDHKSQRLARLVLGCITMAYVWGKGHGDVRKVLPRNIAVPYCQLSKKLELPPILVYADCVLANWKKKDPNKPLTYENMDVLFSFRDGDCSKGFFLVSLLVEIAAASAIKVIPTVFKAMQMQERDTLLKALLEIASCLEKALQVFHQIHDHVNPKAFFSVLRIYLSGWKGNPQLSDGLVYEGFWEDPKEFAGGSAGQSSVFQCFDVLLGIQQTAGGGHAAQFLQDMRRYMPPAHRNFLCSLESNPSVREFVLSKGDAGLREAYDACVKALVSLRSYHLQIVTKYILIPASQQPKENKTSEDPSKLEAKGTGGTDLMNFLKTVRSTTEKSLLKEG

Sequence of TDO2 (P48775 whole entry): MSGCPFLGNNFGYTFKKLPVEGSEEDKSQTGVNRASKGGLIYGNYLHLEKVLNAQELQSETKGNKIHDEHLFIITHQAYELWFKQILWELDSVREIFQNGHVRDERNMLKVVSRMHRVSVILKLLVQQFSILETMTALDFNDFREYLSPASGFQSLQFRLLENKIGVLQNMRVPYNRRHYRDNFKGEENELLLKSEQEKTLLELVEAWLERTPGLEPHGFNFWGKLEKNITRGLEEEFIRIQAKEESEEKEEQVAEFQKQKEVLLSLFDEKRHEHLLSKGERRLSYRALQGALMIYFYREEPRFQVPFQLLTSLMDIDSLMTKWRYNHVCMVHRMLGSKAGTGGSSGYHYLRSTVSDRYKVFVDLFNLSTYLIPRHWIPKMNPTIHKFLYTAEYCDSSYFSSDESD

SMILES	EC50 (TDO2) [µM]	EC50 (IDO1) [µM]
OCc1cccc(C2c3ccccc3-c3cncn32)n1 (stereo not shown) [Example 03, (6-(5H-imidazo[5,1-a]isoindol-5-yl)pyridin-2-yl)methanol]	13	–
C1=C(C2c3ccccc3-c3cncn32)CCn2cccc21 (stereo not shown) [Example 04, 5-(5,6-dihydroindolizin-7-yl)-5H-imidazo[5,1-a]isoindole]	2.3	12
OCc1ccc(F)c(C2c3ccccc3-c3cncn32)c1 (stereo not shown) [Example 08, (4-fluoro-3-(5H-imidazo[5,1-a]isoindol-5-yl)phenyl)methanol]	1.5	–
NC(=O)c1cccc(C2c3ccccc3-c3cncn32)c1 (stereo not shown) [Example 11, 3-(5H-imidazo[5,1-a]isoindol-5-yl)benzamide]	0.65	–
CNS(=O)(=O)c1cccc(C2c3ccccc3-c3cncn32)c1 (stereo not shown) [Example 12, 3-(5H-imidazo[5,1-a]isoindol-5-yl)-N-methylbenzenesulfonamide]	1.8	11
c1ccc2c(c1)-c1cncn1C2C1CCOCC1 (stereo not shown) [Example 14, 5-(tetrahydro-2H-pyran-4-yl)-5H-imidazo[5,1-a]isoindole]	0.81	15
CS(=O)(=O)N1CCC(C2c3ccccc3-c3cncn32)CC1 (stereo not shown) [Example 16, 5-(1-(methylsulfonyl)piperidin-4-yl)-5H-imidazo[5,1-a]isoindole]	0.15	0.93
N#Cc1cccc(C2c3ccccc3-c3cncn32)c1 (stereo not shown) [Example 17, 3-(5H-imidazo[5,1-a]isoindol-5-yl)benzonitrile]	2	16
O=C(C1CC1)N1CCC(C2c3ccccc3-c3cncn32)CC1 (stereo not shown) [Example 18, (4-(5H-imidazo[5,1-a]isoindol-5-yl)piperidin-1-yl)(cyclopropyl)methanone]	9.6	19
Cc1cccc(C2c3ccccc3-c3cncn32)c1 (stereo not shown) [Example 21, 5-(m-tolyl)-5H-imidazo[5,1-a]isoindole]	0.36	9.7
c1ccc2c(c1)-c1cncn1C2CCC1CCCCC1 (stereo not shown) [Example 22, 5-(2-cyclohexylethyl)-5H-imidazo[5,1-a]isoindole]	2.3	–
CCS(=O)(=O)N1CC(C2c3ccccc3-c3cncn32)C1 (stereo not shown) [Example 25, 5-(1-(ethylsulfonyl)azetidin-3-yl)-5H-imidazo[5,1-a]isoindole]	14	–
c1ccc2c(c1)-c1cncn1C2C1CCC2(CC1)OCCO2 (stereo not shown) [Example 26, 5-(1,4-dioxaspiro[4.5]decan-8-yl)-5H-imidazo[5,1-a]isoindole]	3.2	9.7
Fc1cccc(C2c3ccccc3-c3cncn32)c1 (stereo not shown) [Example 30, 5-(3-fluorophenyl)-5H-imidazo[5,1-a]isoindole]	0.34	5
c1ccc2c(c1)-c1cncn1C2C1CCC1 (stereo not shown) [Example 34, 5-cyclobutyl-5H-imidazo[5,1-a]isoindole]	0.99	2.4
c1cncc(C2c3ccccc3-c3cncn32)c1 (stereo not shown) [Example 37, 5-(pyridin-3-yl)-5H-imidazo[5,1-a]isoindole]	4.1	–
c1ccc2c(c1)-c1cncn1C2C1CC2(COC2)C1 (stereo not shown) [Example 39, 5-(2-oxaspiro[3.3]heptan-6-yl)-5H-imidazo[5,1-a]isoindole]	0.59	11
Fc1cc(Cl)cc(C2c3ccccc3-c3cncn32)c1 (stereo not shown) [Example 40, 5-(3-chloro-5-fluorophenyl)-5H-imidazo[5,1-a]isoindole]	0.29	3.8
c1ccc2c(c1)-c1cncn1C2c1ccncc1 (stereo not shown) [Example 41, 5-(pyridin-4-yl)-5H-imidazo[5,1-a]isoindole]	2.5	–
Fc1cc(F)cc(C2c3ccccc3-c3cncn32)c1 (stereo not shown) [Example 45, 5-(3,5-difluorophenyl)-5H-imidazo[5,1-a]isoindole]	0.14	1.9
c1ccc2c(c1)-c1cncn1C2C1CCc2ccncc2C1 (stereo not shown) [Example 46, 5-(5,6,7,8-tetrahydroisoquinolin-7-yl)-5H-imidazo[5,1-a]isoindole]	0.027	2
N#CC1(CC2c3ccccc3-c3cncn32)CC1 (stereo not shown) [Example 48, 1-((5H-imidazo[5,1-a]isoindol-5-yl)methyl)cyclopropane-1-carbonitrile]	6.2	–
NC(=O)c1cc(F)cc(C2c3ccccc3-c3cncn32)c1 (stereo not shown) [Example 51, 3-fluoro-5-(5H-imidazo[5,1-a]isoindol-5-yl)benzamide]	0.12	3.1
CC(C)CC1c2ccccc2-c2cncn21 (stereo not shown) [Example 53, 5-isobutyl-5H-imidazo[5,1-a]isoindole]	0.87	4.4
NC(=O)C1(CC2c3ccccc3-c3cncn32)CC1 (stereo not shown) [Example 54, 1-((5H-imidazo[5,1-a]isoindol-5-yl)methyl)cyclopropane-1-carboxamide]	5.4	–
CS(=O)(=O)c1ccc(C2c3ccccc3-c3cncn32)cc1 (stereo not shown) [Example 56, 5-(4-(methylsulfonyl)phenyl)-5H-imidazo[5,1-a]isoindole]	0.64	4.6
CCS(=O)(=O)Nc1cc2n(n1)CCC(C1c3ccccc3-c3cncn31)=C2 (stereo not shown) [Example 68, N-(5-(5H-imidazo[5,1-a]isoindol-5-yl)-6,7-dihydropyrazolo[1,5-a]pyridin-2-yl)ethanesulfonamide]	1.4	–
c1ccc2c(c1)-c1cncn1C2c1cnn2c1CCC2 (stereo not shown) [Example 87, 5-(5,6-dihydro-4H-pyrrolo[1,2-b]pyrazol-3-yl)-5H-imidazo[5,1-a]isoindole]	2.7	–

Next, values leading:

EC50 (TDO2) [µM]	EC50 (IDO1) [µM]	SMILES
1.1	–	c1ccc2c(c1)-c1cncn1C2C1CCn2nccc2C1 (single isomer, unassigned) [Example 05a]
1.7	–	c1ccc2c(c1)-c1cncn1C2C1CCn2nccc2C1 (single isomer, unassigned) [Example 05b]
24	–	c1ccc2c(c1)-c1cncn1C2C1CCn2nccc2C1 (single isomer, unassigned) [Example 05c]
7.2	–	NS(=O)(=O)c1cccc(C2c3ccccc3-c3cncn32)c1 (single isomer, unassigned) [Example 07a]
0.79	6.5	NS(=O)(=O)c1cccc(C2c3ccccc3-c3cncn32)c1 (single isomer, unassigned) [Example 07b]
0.69	21	OCc1cc(F)cc(C2c3ccccc3-c3cncn32)c1 (single isomer, unassigned) [Example 09a]
0.096	3.3	OCc1cc(F)cc(C2c3ccccc3-c3cncn32)c1 (single isomer, unassigned) [Example 09b]
5.7	–	CC(O)c1cccc(C2c3ccccc3-c3cncn32)c1 (single isomer, unassigned) [Example 10b]
0.59	22	CC(O)c1cccc(C2c3ccccc3-c3cncn32)c1 (single isomer, unassigned) [Example 10c]
5	–	CC(O)c1cccc(C2c3ccccc3-c3cncn32)c1 (single isomer, unassigned) [Example 10d]
0.27	1.5	NC(=O)C1CCC(C2c3ccccc3-c3cncn32)CC1 (single isomer, unassigned) [Example 60b]
–	6.4	NC(=O)C1CCC(C2c3ccccc3-c3cncn32)CC1 (single isomer, unassigned) [Example 60c]
10	17	NC(=O)C1CCC(C2c3ccccc3-c3cncn32)CC1 (single isomer, unassigned) [Example 60d]
0.73	3	CS(=O)(=O)N1CC2(CC(C3c4ccccc4-c4cncn43)C2)C1 (single isomer, unassigned) [Example 72a]
17	–	CS(=O)(=O)N1CC2(CC(C3c4ccccc4-c4cncn43)C2)C1 (single isomer, unassigned) [Example 72b]
0.064	4.8	NS(=O)(=O)N1CCC(C2c3ccc(F)cc3-c3cncn32)CC1 (single isomer, unassigned) [Example 74b]
10	18	CS(=O)(=O)N1CC2(CCC(C3c4ccccc4-c4cncn43)CC2)C1 (single isomer, unassigned) [Example 78a]
2.5	1.4	CS(=O)(=O)N1CC2(CCC(C3c4ccccc4-c4cncn43)CC2)C1 (single isomer, unassigned) [Example 78b]
10	–	Cn1cc(C2c3ccccc3-c3cncn32)cn1 (single isomer, unassigned) [Example 79a]
0.53	8.5	Cn1cc(C2c3ccccc3-c3cncn32)cn1 (single isomer, unassigned) [Example 79b]
22	–	CS(=O)(=O)C1CCC(C2c3ccccc3-c3cncn32)CC1 (single isomer, unassigned) [Example 83a]
0.77	2.3	CS(=O)(=O)C1CCC(C2c3ccccc3-c3cncn32)CC1 (single isomer, unassigned) [Example 83b]
7.1	–	Cn1cc(C2c3ccccc3-c3cncn32)ccc1=O (single isomer, unassigned) [Example 84a]
0.36	12	Cn1cc(C2c3ccccc3-c3cncn32)ccc1=O (single isomer, unassigned) [Example 84b]
11	–	OCc1cccc([C@@H]2c3ccccc3-c3cncn32)c1 [Example 01a, (R)-(3-(5H-imidazo[5,1-a]isoindol-5-yl)phenyl)methanol]
0.31	8.5	OCc1cccc([C@H]2c3ccccc3-c3cncn32)c1 [Example 01b, (S)-(3-(5H-imidazo[5,1-a]isoindol-5-yl)phenyl)methanol]
0.32	5	C[C@H](O)c1cccc([C@H]2c3ccccc3-c3cncn32)c1 [Example 10a, (S)-1-(3-((S)-5H-imidazo[5,1-a]isoindol-5-yl)phenyl)ethan-1-ol]
17	10	c1ccc2c(c1)-c1cncn1[C@@H]2C1CCCCC1 [Example 19a]
0.78	8.1	Cn1ncc2cc(C3c4ccccc4-c4cncn43)ccc21 (stereo not shown) [Example 55b]
